Where a name gives a salt, the structure may show the parent alone.
How the values were obtained:
[1] = target: T1, Full length human recombinant PIKFYVE (Homo sapiens, UniProt Q9Y2I7, L932S/Q1183K/Q995L/S1033A/S696N/T998S); test: Inhibition of PIKfyve (microfluidic electrophoresis kinase assay); format: biochemical; settings: 2 nM enzyme, 1 μM PI3P, 3 h at room temperature, 12 concentrations; read-out: PIKfyve IC50
T1 construct: Full length human recombinant PIKFYVE; purchased Carna Biosciences (Kobe, Japan); host or cells: baculovirus expression system (insect cells)
T1 sequence (Q9Y2I7 whole entry S696N/L932S/Q995L/T998S/S1033A/Q1183K): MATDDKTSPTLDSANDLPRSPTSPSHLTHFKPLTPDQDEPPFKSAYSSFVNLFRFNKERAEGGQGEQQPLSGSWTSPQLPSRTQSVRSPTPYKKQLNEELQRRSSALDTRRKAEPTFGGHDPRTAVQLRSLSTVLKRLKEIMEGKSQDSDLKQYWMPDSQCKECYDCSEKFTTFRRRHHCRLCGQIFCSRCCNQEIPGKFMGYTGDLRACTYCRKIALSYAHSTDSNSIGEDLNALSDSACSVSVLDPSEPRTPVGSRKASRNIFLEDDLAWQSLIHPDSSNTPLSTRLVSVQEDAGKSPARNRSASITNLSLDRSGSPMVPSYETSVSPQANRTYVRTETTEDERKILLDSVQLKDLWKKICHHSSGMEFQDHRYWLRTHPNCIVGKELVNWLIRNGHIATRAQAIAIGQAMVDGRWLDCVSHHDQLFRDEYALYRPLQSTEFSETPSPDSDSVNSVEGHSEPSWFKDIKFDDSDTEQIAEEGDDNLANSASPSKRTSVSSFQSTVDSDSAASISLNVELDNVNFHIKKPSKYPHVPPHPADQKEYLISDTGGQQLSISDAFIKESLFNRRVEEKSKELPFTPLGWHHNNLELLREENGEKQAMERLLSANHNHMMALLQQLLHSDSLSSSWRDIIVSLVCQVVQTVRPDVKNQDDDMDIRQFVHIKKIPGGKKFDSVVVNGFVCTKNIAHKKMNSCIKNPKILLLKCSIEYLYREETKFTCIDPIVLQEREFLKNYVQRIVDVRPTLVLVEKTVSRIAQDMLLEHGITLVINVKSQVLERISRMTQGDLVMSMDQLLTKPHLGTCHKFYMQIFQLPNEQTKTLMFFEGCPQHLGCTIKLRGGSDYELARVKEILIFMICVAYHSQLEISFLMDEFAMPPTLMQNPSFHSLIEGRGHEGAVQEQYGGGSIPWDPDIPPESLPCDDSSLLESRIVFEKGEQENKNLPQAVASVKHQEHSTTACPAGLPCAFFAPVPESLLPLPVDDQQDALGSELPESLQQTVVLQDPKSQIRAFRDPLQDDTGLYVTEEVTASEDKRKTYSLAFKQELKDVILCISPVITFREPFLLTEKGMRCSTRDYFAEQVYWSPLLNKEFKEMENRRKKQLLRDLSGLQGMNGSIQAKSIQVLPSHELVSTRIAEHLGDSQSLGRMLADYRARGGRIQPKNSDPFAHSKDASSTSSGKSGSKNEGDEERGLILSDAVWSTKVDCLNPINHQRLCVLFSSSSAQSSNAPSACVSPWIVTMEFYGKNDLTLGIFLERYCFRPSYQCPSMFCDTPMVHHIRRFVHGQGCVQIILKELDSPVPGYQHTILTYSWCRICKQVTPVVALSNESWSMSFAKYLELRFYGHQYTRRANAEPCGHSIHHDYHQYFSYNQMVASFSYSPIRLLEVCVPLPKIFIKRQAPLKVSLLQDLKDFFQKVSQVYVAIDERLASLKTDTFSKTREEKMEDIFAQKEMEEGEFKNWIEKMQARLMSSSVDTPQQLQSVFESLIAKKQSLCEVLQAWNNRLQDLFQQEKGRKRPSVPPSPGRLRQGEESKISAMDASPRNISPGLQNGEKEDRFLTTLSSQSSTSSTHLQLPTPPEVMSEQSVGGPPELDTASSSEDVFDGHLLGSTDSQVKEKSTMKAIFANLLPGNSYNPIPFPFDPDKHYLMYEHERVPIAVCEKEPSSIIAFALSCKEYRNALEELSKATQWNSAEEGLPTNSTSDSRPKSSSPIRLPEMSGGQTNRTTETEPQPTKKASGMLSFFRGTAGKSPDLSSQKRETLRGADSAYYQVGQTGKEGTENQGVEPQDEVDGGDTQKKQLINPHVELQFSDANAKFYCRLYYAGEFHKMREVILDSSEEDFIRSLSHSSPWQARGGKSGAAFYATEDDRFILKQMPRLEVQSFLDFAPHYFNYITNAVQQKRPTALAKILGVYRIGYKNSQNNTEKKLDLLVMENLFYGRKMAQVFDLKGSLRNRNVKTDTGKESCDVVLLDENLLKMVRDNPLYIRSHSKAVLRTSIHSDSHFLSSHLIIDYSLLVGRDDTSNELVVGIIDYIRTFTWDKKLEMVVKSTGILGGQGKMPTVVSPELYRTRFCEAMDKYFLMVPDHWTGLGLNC
Experimental: Biological Example 1: Inhibition of PIKfyve
Full length human recombinant PIKFYVE expressed in baculovirus expression system as N-terminal GST-fusion protein (265 kDa) was obtained from Carna Biosciences (Kobe, Japan). The kinase substrate was prepared by mixing and sonicating fluorescently-labeled phosphatidylinositol 3-phosphate (PI3P) with phospho-L-serine (PS) at a 1:10 ratio in 50 mM HEPES buffer pH7.5.
The kinase reactions were assembled in 384-well plates (Greiner) in a total volume of […] as follows. Kinase protein was pre-diluted in an assay buffer comprising 25 mM HEPES, pH 7.5, 1 mM DTT, 2.5 mM MgCl2, and 2.5 mM MnCl2, and 0.005% Triton X-100, and dispensed into a 384-well plate (10 μL per well). Test compounds were serially pre-diluted in DMSO and added to the protein samples by acoustic dispensing (Labcyte Echo). The concentration of DMSO was equalized to 1% in all samples. All test compounds were tested at 12 concentrations. Apilimod was used as a reference compound and was tested in identical manner in each assay plate. Control samples (0%-inhibition, in the absence of inhibitor, DMSO only) and 100%-inhibition (in the absence of enzyme) were assembled in replicates of four and were used to calculate %-inhibition in the presence of compounds. The reactions were initiated by addition of 10 μL of 2× PI3P/PS substrate supplemented with ATP. The final concentration of enzyme was 2 nM, the final concentration of ATP was […], and the final concentration of PI3P/PS substrate was 1 μM (PI3P). The kinase reactions were allowed to proceed for 3 h at room temperature. Following incubation, the reactions were quenched by addition of […] of termination buffer (100 mM HEPES, pH 7.5, 0.01% Triton X-100, 20 mM EDTA). Terminated plates were analyzed on a microfluidic electrophoresis instrument (Caliper LabChip® 3000, Caliper Life Sciences/Perkin Elmer). The change in the relative fluorescence intensity of the PI(3)P substrate and PI(3,5)P product peaks was measured. The activity in each test sample was determined as the product to sum ratio (PSR): P/(S+P), where P is the peak height of the product, and S is the peak height of the substrate. Percent inhibition (Pinh) was determined using the following equation:
Pinh=(PSR0%inh−PSRcompound)/(PSR0%inh−P100%inh)*100
in which PSRcompound is the product/sum ratio in the presence of compound, PSR0%inh is the product/sum ratio in the absence of compound, and the PSR100%inh is the product/sum ratio in the absence of the enzyme. To determine the ICso of test compounds (50%-inhibition) the %-inh cdata (Pinh versus compound concentration) were fitted by a four-parameter sigmoid dose-response model using XLfit software (IDBS).

[2] = tested on: ALS patient (SOD1 A4V) iPSC derived motor neurons; test: iPSC MN Survival assay (IPSC-SOD1); format: cell-based, human; settings: nutrient deprived media (HBSS), six days, maximal reduction in hazard ratio, <1.0 increased survival
Experimental: Biological Example 4: iPSC MN Survival assay
Fibroblasts from ALS patients with known SOD1 A4V mutation were reprogrammed into inducible pluripotent stem cells (iPSC) and then differentiated to motor neurons. In culture, ALS patient derived motor neurons show increased death rate compared to motor neurons derived from healthy individuals in a stressed condition (nutrient deprived media, Hank's buffered salt solution—HBSS). […] Cell rescue was measured following more than two different concentrations of each compound for six days with greater than four replicates in a 96-well format to ensure studies with power >0.8. Cells are transduced with a GFP reporter and imaged once a day to track survival. A broad-spectrum caspase inhibitor served as the positive control.
Microscopy image-based readout: Cells are transduced with a GFP reporter and imaged once a day with a blue laser to track survival. Imagers used include the Biotek Cytation 5 and Thermo Fisher EVOS Auto FL 2. All Images undergo uniform processing consisting of rolling hat background subtraction and contrast adjustment. Microscopy images are analyzed using software proprietary to Verge. Cells are identified by their shape and each cell is tracked across images and time points for each well. Survival is visually assessed from the Kaplan-Meier curves. Survival of the cells is modeled and tested using a mixed effects Cox regression where each well is modeled as the random effect, and the group (control/treatment) as the fixed effect. […]. Data are presented in Table 7 as the maximal reduction in hazard ratio scores measured at various concentrations.

IPSC-C9 motor neurons = test: iPSC MN Survival assay (IPSC-C9); format: cell-based, human; settings: maximal reduction in hazard ratio vs control at various concentrations; <1.0 increased survival, >1.0 decreased survival
PI3Kδ (p110δ/p85α) = target: T2, PI3Kδ (p110δ/p85α) (Homo sapiens, UniProt O00329); format: biochemical; settings: 0.25 nM enzyme, ATP 90 μM, 1 μM PIP2, 3 h room temperature; read-out: PI3Kδ IC50
T2 construct: Full-length N-terminal GST-; GST (N); host or cells: SF9 cells (baculovirus)

PI3Kβ (p110β/p85α) = target: T3, PI3Kβ (p110β/p85α) (Homo sapiens, UniProt P42338); format: biochemical; settings: 1 nM enzyme, ATP 60 μM, 1 μM PIP2, 3 h room temperature; read-out: PI3Kβ IC50
T3 construct: Full-length N-terminal GST-; GST (N); host or cells: SF9 cells (baculovirus)
T3 sequence (P42338 whole entry): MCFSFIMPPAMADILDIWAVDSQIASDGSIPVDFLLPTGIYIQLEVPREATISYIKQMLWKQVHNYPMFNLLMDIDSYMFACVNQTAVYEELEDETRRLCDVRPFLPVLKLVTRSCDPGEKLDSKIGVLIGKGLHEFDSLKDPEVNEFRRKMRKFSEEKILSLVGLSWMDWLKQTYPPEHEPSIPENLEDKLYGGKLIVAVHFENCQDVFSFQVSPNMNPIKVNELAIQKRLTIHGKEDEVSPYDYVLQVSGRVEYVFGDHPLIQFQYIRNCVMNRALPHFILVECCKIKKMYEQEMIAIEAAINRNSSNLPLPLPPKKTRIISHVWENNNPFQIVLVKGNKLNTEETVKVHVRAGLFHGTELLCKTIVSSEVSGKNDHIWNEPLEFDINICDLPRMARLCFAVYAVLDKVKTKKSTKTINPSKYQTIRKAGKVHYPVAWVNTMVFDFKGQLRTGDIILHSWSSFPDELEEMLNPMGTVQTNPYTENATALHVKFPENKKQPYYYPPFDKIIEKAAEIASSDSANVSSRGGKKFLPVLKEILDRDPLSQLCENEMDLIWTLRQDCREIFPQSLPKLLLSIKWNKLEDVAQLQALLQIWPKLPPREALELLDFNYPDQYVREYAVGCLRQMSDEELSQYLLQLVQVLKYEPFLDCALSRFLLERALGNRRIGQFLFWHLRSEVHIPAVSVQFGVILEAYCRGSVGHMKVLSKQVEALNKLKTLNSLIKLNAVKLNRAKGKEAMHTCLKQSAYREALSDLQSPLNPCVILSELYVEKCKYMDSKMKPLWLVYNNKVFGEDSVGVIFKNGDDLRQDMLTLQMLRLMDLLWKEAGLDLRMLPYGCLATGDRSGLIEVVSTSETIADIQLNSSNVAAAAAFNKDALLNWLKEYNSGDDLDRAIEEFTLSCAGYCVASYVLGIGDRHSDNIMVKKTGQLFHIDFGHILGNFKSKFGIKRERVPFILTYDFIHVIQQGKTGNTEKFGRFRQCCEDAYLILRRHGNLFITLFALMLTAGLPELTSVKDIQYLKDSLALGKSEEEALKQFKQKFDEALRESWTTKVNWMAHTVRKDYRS
T3 sequence (P27986 whole entry, further chain): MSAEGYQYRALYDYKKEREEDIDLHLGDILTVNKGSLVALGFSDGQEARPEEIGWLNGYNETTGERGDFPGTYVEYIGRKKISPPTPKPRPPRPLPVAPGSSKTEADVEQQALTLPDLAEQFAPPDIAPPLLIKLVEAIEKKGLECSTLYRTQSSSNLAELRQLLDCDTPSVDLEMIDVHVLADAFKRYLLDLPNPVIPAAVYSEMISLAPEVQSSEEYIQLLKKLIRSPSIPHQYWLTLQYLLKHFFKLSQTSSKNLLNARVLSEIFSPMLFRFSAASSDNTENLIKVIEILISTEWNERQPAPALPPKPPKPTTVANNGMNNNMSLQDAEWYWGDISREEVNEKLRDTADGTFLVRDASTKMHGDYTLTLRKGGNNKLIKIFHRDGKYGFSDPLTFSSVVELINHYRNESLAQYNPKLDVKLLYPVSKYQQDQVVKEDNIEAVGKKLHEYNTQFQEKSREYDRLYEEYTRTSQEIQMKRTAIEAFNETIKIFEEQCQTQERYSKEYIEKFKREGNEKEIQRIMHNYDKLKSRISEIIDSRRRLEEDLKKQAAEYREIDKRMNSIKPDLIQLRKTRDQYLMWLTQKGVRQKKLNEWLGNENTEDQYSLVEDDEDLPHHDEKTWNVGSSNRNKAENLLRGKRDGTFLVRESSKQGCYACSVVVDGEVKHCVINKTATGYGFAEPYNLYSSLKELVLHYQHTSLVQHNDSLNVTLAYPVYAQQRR

PI3Kα (p110α/p85α) = target: T4, PI3Kα (p110α/p85α) (Homo sapiens, UniProt P42336); format: biochemical; settings: 0.5 nM enzyme, ATP 90 μM, 1 μM PIP2, 3 h room temperature; read-out: PI3Kα IC50
T4 construct: Full-length N-terminal; FLAG (N); host or cells: SF9 cells (baculovirus)
T4 sequence (P42336 whole entry): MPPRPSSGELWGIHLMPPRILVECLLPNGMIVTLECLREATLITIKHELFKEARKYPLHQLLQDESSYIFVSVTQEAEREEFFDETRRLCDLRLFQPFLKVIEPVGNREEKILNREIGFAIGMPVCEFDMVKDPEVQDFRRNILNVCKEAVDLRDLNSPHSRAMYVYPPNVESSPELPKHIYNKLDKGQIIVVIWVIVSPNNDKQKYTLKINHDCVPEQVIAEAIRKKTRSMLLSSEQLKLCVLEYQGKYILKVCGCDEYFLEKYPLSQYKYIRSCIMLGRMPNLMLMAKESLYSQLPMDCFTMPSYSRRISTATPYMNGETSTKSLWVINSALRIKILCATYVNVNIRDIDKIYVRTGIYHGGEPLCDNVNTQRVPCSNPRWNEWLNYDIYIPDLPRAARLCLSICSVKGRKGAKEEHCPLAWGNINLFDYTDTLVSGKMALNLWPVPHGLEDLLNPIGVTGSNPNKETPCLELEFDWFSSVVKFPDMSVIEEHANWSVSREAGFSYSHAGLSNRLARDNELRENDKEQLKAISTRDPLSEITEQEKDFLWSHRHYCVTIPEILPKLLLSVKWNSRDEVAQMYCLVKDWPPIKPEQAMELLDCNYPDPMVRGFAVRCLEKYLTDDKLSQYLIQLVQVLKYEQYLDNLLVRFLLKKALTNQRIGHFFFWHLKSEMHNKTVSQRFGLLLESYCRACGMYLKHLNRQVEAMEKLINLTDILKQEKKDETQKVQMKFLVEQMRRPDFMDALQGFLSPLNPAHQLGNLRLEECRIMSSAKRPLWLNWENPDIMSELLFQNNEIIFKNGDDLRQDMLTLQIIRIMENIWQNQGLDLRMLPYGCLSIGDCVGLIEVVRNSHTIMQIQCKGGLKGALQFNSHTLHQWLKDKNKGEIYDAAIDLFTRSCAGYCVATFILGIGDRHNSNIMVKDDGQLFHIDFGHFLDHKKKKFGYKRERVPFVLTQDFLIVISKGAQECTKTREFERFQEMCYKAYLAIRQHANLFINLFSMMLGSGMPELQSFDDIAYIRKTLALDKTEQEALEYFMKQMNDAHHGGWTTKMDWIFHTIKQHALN
T4 sequence (P27986 whole entry, further chain): as the sequence (P27986 whole entry, further chain) above

| SMILES | IC50 [1] [nM] | IPSC-SOD1 (Hazard Ratio) [2] | IPSC-C9 (Hazard Ratio) (IPSC-C9 motor neurons) | IC50 (PI3Kδ (p110δ/p85α)) [nM] | IC50 (PI3Kβ (p110β/p85α)) [nM] | IC50 (PI3Kα (p110α/p85α)) [nM] |
| --- | --- | --- | --- | --- | --- | --- |
| c1cnc2oc3c(N4CCOCC4)nc(Nc4cncnc4)nc3c2c1 [Example 43, 4-morpholino-N-(pyrimidin-5-yl)pyrido[3′,2′:4,5]furo[3,2-d]pyrimidin-2-amine] | > 10000 | 1.1 | 1.06 | – | – | – |
| c1cnc2oc3c(N4CCOCC4)nc(Nc4cc(-c5ccncc5)n[nH]4)nc3c2c1 [Example 10, 4-Morpholino-N-(3-(pyridin-4-yl)-1H-pyrazol-5-yl)pyrido[3′,2′:4,5]furo[3,2-d]pyrimidin-2-amine] | 185 | 1.04 | 0.96 | 37 | 1310 | 117 |
| c1ccc(-c2cc(Nc3nc(N4CCOCC4)c4oc5ncccc5c4n3)[nH]n2)cc1 [Example 9, 4-Morpholino-N-(3-phenyl-1H-pyrazol-5-yl)pyrido[3′,2′:4,5]furo[3,2-d]pyrimidin-2-amine] | 23 | 0.81 | 0.65 | 75 | > 10000 | 144 |
| Cc1cc(N(C)c2nc(N3CCOCC3)c3oc4ncccc4c3n2)nn1C [Example 11, N-(1,5-Dimethyl-1H-pyrazol-3-yl)-N-methyl-4-morpholinopyrido[3′,2′:4,5]furo[3,2-d]pyrimidin-2-amine] | > 10000 | 1.1 | 0.99 | 278 | 7030 | 244 |
| c1ccc(Nc2nc(N3CCOCC3)c3oc4ncccc4c3n2)cc1 [Example 37, 4-morpholino-N-phenylpyrido[3′,2′:4,5]furo[3,2-d]pyrimidin-2-amine] | 439 | 1.03 | 0.99 | 41 | 1040 | 67 |
| Cc1cc(Nc2nc(N3CCOCC3)c3oc4ncccc4c3n2)nn1C [Example 47, N-(1,5-dimethyl-1H-pyrazol-3-yl)-4-morpholinopyrido[3′,2′:4,5]furo[3,2-d]pyrimidin-2-amine] | 4320 | 1.1 | – | 54 | 2630 | 82 |
| c1cncc(Nc2nc(N3CCOCC3)c3oc4ncccc4c3n2)c1 [Example 39, 4-morpholino-N-(pyridin-3-yl)pyrido[3′,2′:4,5]furo[3,2-d]pyrimidin-2-amine] | 2180 | – | – | 60 | 370 | 82 |
| c1cnc2oc3c(N4CCOCC4)nc(Nc4cc(CC5CCC5)n[nH]4)nc3c2c1 [Example 56, N-(3-(cyclobutylmethyl)-1H-pyrazol-5-yl)-4-morpholinopyrido[3′,2′:4,5]furo[3,2-d]pyrimidin-2-amine hydrochloride] | 1790 | – | – | 24 | 937 | 47 |
| c1ccc(Nc2nc(N3CCOCC3)c3oc4ncccc4c3n2)nc1 [Example 40, 4-morpholino-N-(pyridin-2-yl)pyrido[3′,2′:4,5]furo[3,2-d]pyrimidin-2-amine] | 2770 | – | – | 66 | 1190 | 102 |
| Cc1cccc(-c2cc(Nc3nc(N4CCOCC4)c4oc5ncccc5c4n3)[nH]n2)c1 [Example 49, 4-morpholino-N-(3-(m-tolyl)-1H-pyrazol-5-yl)pyrido[3′,2′:4,5]furo[3,2-d]pyrimidin-2-amine] | 38 | 1.03 | 1.2 | – | – | – |
| Cl.c1cnc2oc3c(N4CCOCC4)nc(Nc4cc(-c5ccsc5)n[nH]4)nc3c2c1 [Example 61, 4-morpholino-N-(3-(thiophen-3-yl)-1H-pyrazol-5-yl)pyrido[3′,2′:4,5]furo[3,2-d]pyrimidin-2-amine hydrochloride] | 26 | – | 0.542 | – | – | – |
| c1ccc(-c2cc(Nc3nc(N4CCOCC4)c4oc5ncc(CCN6CCCC6)cc5c4n3)[nH]n2)cc1 [Example 14, 4-Morpholino-N-(3-phenyl-1H-pyrazol-5-yl)-8-(2-(pyrrolidin-1-yl)ethyl)pyrido[3′,2′:4,5]furo[3,2-d]pyrimidin-2-amine] | 2320 | 0.96 | 0.9 | – | – | – |

From patent US20230038929A1, “Fused Tricyclic Heterocyclic Compounds and Uses Thereof” (Verge Analytics, Inc., priority 2019, published 2023)
